Experimental data as given in patent US20250179103A1, “6-OXODECAHYDROPYRROLO[1,2-A][1,5]DIAZOCINE AND 6-OXODECAHYDRO-4H-PYRROLO[2,1-D][1,5]THIAZOCINE DERIVATIVES AS STAT3 AND STAT6 MODULATORS FOR THE TREATMENT OF CANCER AND INFLAMMATORY CONDITIONS” (Recludix Pharma, Inc., priority 2022, published 2025).

What was measured:
[1] = test system: pY705-STAT3 in Peripheral Blood Mononuclear Cells (PBMC); experiment: MSD-pSTAT-PBMC Assay (pSTAT3, IL-6 stimulated); format: cell-based, Human; settings: Homo sapiens, compound 3 hrs, then 10 ng/mL IL-6 for 10 min
Procedure, shortened: (§1)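 Phospho-STAT readout used MSD electrochemiluminescence with total STAT3 or STAT6 capture in lysates of cryopreserved human PBMCs. Cells had 3 h compound exposure before a 10 min cytokine pulse: IL-6 10 ng/mL for pSTAT3, IL-4 1 ng/mL for pSTAT6. IC50 came from background-subtracted, DMSO-normalised signal, with categories A≤100 nM up to D>3 μM.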

[2] = test system: pY641-STAT6 in Peripheral Blood Mononuclear Cells (PBMC); experiment: MSD-pSTAT-PBMC Assay (pSTAT6, IL-4 stimulated); format: cell-based, Human; settings: Homo sapiens, compound 3 hrs, then 1 ng/mL IL-4 for 10 min
Procedure, shortened: as §1

**Q.** Which IC50 [1] does the source give for `CC(=O)N1CC[C@H]2CC[C@@H](C(=O)N(C)c3ccc(-c4ccccc4)cc3)N2C(=O)[C@@H](NC(=O)c2cc3cc(C(F)(F)P(=O)(OCOC(=O)C(C)(C)C)OCOC(=O)C(C)(C)C)ccc3s2)C1` [Compound 310, ((((2-(((5S, 8S,10aR)-8-([1,1′-biphenyl]-4-yl(methyl)carbamoyl)-3-acetyl-6-oxodecahydro-pyrrolo[1,2-a][1,5]diazocin-5-yl)carbamoyl)benzo[b]thiophen-5-yl)difluoro-methyl)phos-phoryl)bis(oxy)) bis(methylene) bis(2,2-dimethylpro-panoate)] here?
**A.** The IC50 was 100 to 1000 nM.

**Q.** And the IC50 [2]?
**A.** The IC50 was 100 to 1000 nM.

**Q.** With `CC(=O)N1CC[C@H]2CC[C@@H](C(=O)N(C)c3ccc(N4CCOCC4)cc3)N2C(=O)[C@@H](NC(=O)c2cc3cc(C(F)(F)P(=O)(OCOC(=O)C(C)(C)C)OCOC(=O)C(C)(C)C)ccc3s2)C1` [Compound 311, ((((2-(((5S, 8S,10aR)-3-acetyl-8-(methyl(4-morpholino-phenyl)carbamoyl)-6-oxodecahydro-pyrrolo[1,2-a][1,5]diazocin-5-yl)carbamoyl)benzo[b]thiophen-5-yl)difluoro-methyl)phos-phoryl)bis(oxy)) bis(methylene) bis(2,2-dimethylpro-panoate)] as the compound, how does the IC50 [1] read?
**A.** Its IC50 is 1000 to 3000 nM.

**Q.** What about the IC50 [2] of the same compound?
**A.** The IC50 was 100 to 1000 nM.

**Q.** `CC(=O)N1CC[C@H]2CC[C@@H](C(=O)N(C)C3CCN(S(C)(=O)=O)CC3)N2C(=O)[C@@H](NC(=O)c2cc3cc(C(F)(F)P(=O)(OCOC(=O)C(C)(C)C)OCOC(=O)C(C)(C)C)ccc3s2)C1` [Compound 312, ((((2-(((5S, 8S,10aR)-3-acetyl-8-(methyl(1-(methyl-sulfonyl)piperidin-4-yl)carbamoyl)-6-oxodecahydro-pyrrolo[1,2-a][1,5]diazocin-5-yl)carbamoyl)benzo[b]thiophen-5-yl)difluoro-methyl)phos-phoryl)bis(oxy))bis (methylene) bis(2,2-dimethylpro-panoate)] was tested. Which IC50 [1] did it give?
**A.** Its IC50 is > 3000 nM.

**Q.** What about the IC50 [2] of the same compound?
**A.** Its IC50 is 100 to 1000 nM.

**Q.** Which results are given for `CC(=O)N1CC[C@H]2CC[C@@H](C(=O)NC3CCN(S(C)(=O)=O)CC3)N2C(=O)[C@@H](NC(=O)c2cc3cc(C(F)(F)P(=O)(OCOC(=O)C(C)(C)C)OCOC(=O)C(C)(C)C)ccc3s2)C1` [Compound 313, ((((2-(((5S, 8S,10aR)-3-acetyl-8-((1-(methyl-sulfonyl)piperidin-4-yl)carbamoyl)-6-oxodecahydro-pyrrolo[1,2-a][1,5]diazocin-5-yl)carbamoyl)benzo[b]thiophen-5-yl)difluoro-methyl)phos-phoryl)bis(oxy)) bis(methylene) bis(2,2-dimethylpro-panoate)]?
**A.** IC50 [1]: > 3000 nM; IC50 [2]: 1000 to 3000 nM

**Q.** `CC(=O)N1CC[C@H]2CC[C@@H](C(=O)Nc3ccc(S(C)(=O)=O)cc3)N2C(=O)[C@@H](NC(=O)c2cc3cc(C(F)(F)P(=O)(OCOC(=O)C(C)(C)C)OCOC(=O)C(C)(C)C)ccc3s2)C1` [Compound 314, ((((2-(((5S, 8S,10aR)-3-acetyl-8-((4-(methyl-sulfonyl)phenyl)carbamoyl)-6-oxodecahydro-pyrrolo[1,2-a][1,5]diazocin-5-yl)carbamoyl)benzo[b]thiophen-5-yl)difluoro-methyl)phos-phoryl)bis(oxy))bis (methylene) bis(2,2-dimethylpro-panoate)] was tested. Which IC50 [1] did it give?
**A.** The IC50 was 1000 to 3000 nM.

**Q.** And the IC50 [2]?
**A.** Its IC50 is 100 to 1000 nM.

**Q.** Which IC50 [1] does the source give for `CC(=O)N1CC[C@H]2CC[C@@H](C(=O)N(C)c3ccccc3)N2C(=O)[C@@H](NC(=O)/C=C/c2ccc(C(F)(F)P(=O)(OCOC(=O)C(C)(C)C)OCOC(=O)C(C)(C)C)cc2)C1` [Compound 315, ((((4-((E)-3-(((5S,8S, 10aR)-3-acetyl-8-(methyl (phenyl)carbamoyl)-6-oxodecahydro-pyrrolo[1,2-a][1,5]diazocin-5-yl)amino)-3-oxoprop-1-en-1-yl)phenyl)difluoro-methyl)phosphoryl)bis(oxy))bis (methylene) bis(2,2-dimethylpro-panoate)] here?
**A.** Its IC50 is > 3000 nM.

**Q.** What about the IC50 [2] of the same compound?
**A.** The IC50 was 100 to 1000 nM.

**Q.** For `CC(=O)N1CC[C@H]2CC[C@@H](C(=O)N(C)c3ccc(C#N)cc3)N2C(=O)[C@@H](NC(=O)c2cc3cc(C(F)(F)P(=O)(OCOC(=O)C(C)(C)C)OCOC(=O)C(C)(C)C)ccc3s2)C1` [Compound 316, ((((2-(((5S,8S, 10aR)-3-acetyl-8-((4-cyanophenyl) (methyl)carbamoyl)-6-oxodecahydro-pyrrolo[1,2-a][1,5]diazocin-5-yl)carbamoyl)benzo[b]thiophen-5-yl)difluoro-methyl)phos-phoryl)bis(oxy)) bis(methylene) bis(2,2-dimethylpro-panoate)], which IC50 [1] is on record?
**A.** Its IC50 is > 3000 nM.

**Q.** And the IC50 [2]?
**A.** Its IC50 is 1000 to 3000 nM.

**Q.** How did the IC50 [1] turn out when `CCOP(=O)(OCC)C(F)(F)c1ccc2sc(C(=O)N[C@H]3CN(C(C)=O)CC[C@H]4CC[C@@H](C(=O)N(C)c5ccccc5)N4C3=O)cc2c1` [Compound 317, diethyl ((2-(((5S,8S, 10aR)-3-acetyl-8-(methyl (phenyl)carbamoyl)-6-oxodecahydro-pyrrolo[1,2-a][1,5]diazocin-5-yl)carbamoyl)benzo[b]thiophen-5-yl)difluoro-methyl)phos-phonate] was run?
**A.** The IC50 was > 3000 nM.

**Q.** And the IC50 [2]?
**A.** Its IC50 is > 3000 nM.

**Q.** How did the IC50 [1] turn out when `CC(=O)N1CC[C@H]2CC[C@@H](C(=O)N(C)c3ccccc3)N2C(=O)[C@@H](NC(=O)c2cc3cc(C(F)(F)P(=O)(OCOC(=O)OC(C)C)OCOC(=O)OC(C)C)ccc3s2)C1` [Compound 318, ((((2-(((5S,8S, 10aR)-3-acetyl-8-(methyl (phenyl)carbamoyl)-6-oxodecahydro-pyrrolo[1,2-a][1,5]diazocin-5-yl)carbamoyl)benzo[b]thiophen-5-yl)difluoro-methyl)phos-phoryl)bis(oxy)) bis(methylene) diisopropyl bis(carbonate)] was run?
**A.** Its IC50 is 100 to 1000 nM.

**Q.** And the IC50 [2]?
**A.** Its IC50 is 100 to 1000 nM.

**Q.** How did the IC50 [1] turn out when `CC(=O)N1CC[C@H]2CC[C@@H](C(=O)N(C)c3ccc(C(C)(C)C)cc3)N2C(=O)[C@@H](NC(=O)c2cc3cc(C(F)(F)P(=O)(OCOC(=O)C(C)(C)C)OCOC(=O)C(C)(C)C)ccc3s2)C1` [Compound 319, ((((2-(((5S,8S, 10aR)-3-acetyl-8-((4-(tert-butyl)phenyl) (methyl)carbamoyl)-6-oxodecahydro-pyrrolo[1,2-a][1,5]diazocin-5-yl)carbamoyl)benzo[b]thiophen-5-yl)difluoro-methyl)phos-phoryl)bis(oxy)) bis(methylene) bis(2,2-dimethylpro-panoate)] was run?
**A.** Its IC50 is 100 to 1000 nM.

**Q.** What about the IC50 [2] of the same compound?
**A.** The IC50 was ≤ 100 nM.

**Q.** `CC(=O)N1CC[C@H]2CC[C@@H](C(=O)N3CCC[C@H]3Cc3ccccc3)N2C(=O)[C@@H](NC(=O)c2cc3cc(C(F)(F)P(=O)(OCOC(=O)C(C)(C)C)OCOC(=O)C(C)(C)C)ccc3s2)C1` [Compound 320, ((((2-(((5S,8S, 10aR)-3-acetyl-8-((S)-2-benzyl-pyrrolidine-1-carbonyl)-6-oxodecahydro-pyrrolo[1,2-a][1,5]diazocin-5-yl)carbamoyl)benzo[b]thiophen-5-yl)difluoro-methyl)phos-phoryl)bis(oxy)) bis(methylene) bis(2,2-dimethylpro-panoate)] was tested. Which IC50 [1] did it give?
**A.** The IC50 was 100 to 1000 nM.

**Q.** And the IC50 [2]?
**A.** Its IC50 is ≤ 100 nM.

**Q.** With `CC(=O)N1CC[C@H]2CC[C@@H](C(=O)N(C)c3ccccc3)N2C(=O)[C@@H](NC(=O)c2ccc3ccc(C(F)(F)P(=O)(OCOC(=O)C(C)(C)C)OCOC(=O)C(C)(C)C)cc3c2)C1` [Compound 321, ((((7-(((5S,8S, 10aR)-3-acetyl-8-(methyl (phenyl)carbamoyl)-6-oxodecahydro-pyrrolo[1,2-a][1,5]diazocin-5-yl)carbamoyl)naphthalen-2-yl)difluoro-methyl)phos-phoryl)bis(oxy)) bis(methylene) bis(2,2-dimethylpro-panoate)] as the compound, how does the IC50 [1] read?
**A.** The IC50 was 100 to 1000 nM.

**Q.** And the IC50 [2]?
**A.** Its IC50 is ≤ 100 nM.

**Q.** For `CC(=O)N1CC[C@H]2CC[C@@H](C(=O)N(C)c3ccccc3)N2C(=O)[C@@H](NC(=O)c2ccc3cc(C(F)(F)P(=O)(OCOC(=O)C(C)(C)C)OCOC(=O)C(C)(C)C)ccc3c2)C1` [Compound 322, ((((6-(((5S,8S, 10aR)-3-acetyl-8-(methyl (phenyl)carbamoyl)-6-oxodecahydro-pyrrolo[1,2-a][1,5]diazocin-5-yl)carbamoyl)naphthalen-2-yl)difluoro-methyl)phos-phoryl)bis(oxy)) bis(methylene) bis(2,2-dimethylpro-panoate)], which IC50 [1] is on record?
**A.** The IC50 was > 3000 nM.

**Q.** What about the IC50 [2] of the same compound?
**A.** The IC50 was > 3000 nM.

**Q.** With `CC(=O)N1CC[C@H]2CC[C@@H](C(=O)Nc3ccc(-c4ccccc4)cc3)N2C(=O)[C@@H](NC(=O)/C=C/c2ccc(C(F)(F)P(=O)(OCOC(=O)C(C)(C)C)OCOC(=O)C(C)(C)C)cc2)C1` [Compound 324, ((((4-((E)-3-(((5S,8S, 10aR)-8-([1,1′-biphenyl]-4-ylcarbamoyl)-3-acetyl-6-oxodecahydro-pyrrolo[1,2-a][1,5]diazocin-5-yl)amino)-3-oxoprop-1-en-1-yl)phenyl)difluoro-methyl)phosphoryl)bis(oxy))bis (methylene) bis(2,2-dimethylpro-panoate)] as the compound, how does the IC50 [1] read?
**A.** The IC50 was > 3000 nM.

**Q.** And the IC50 [2]?
**A.** Its IC50 is > 3000 nM.

**Q.** Which IC50 [1] does the source give for `CC(=O)N1CC[C@H]2CC[C@@H](C(=O)Nc3ccc(-c4ccccc4)cc3)N2C(=O)[C@@H](NC(=O)/C=C/c2ccc(C(F)(F)P(=O)(OCCSC(=O)CC(C)C)OCCSC(=O)CC(C)C)cc2)C1` [Compound 325, S,S′-(((((4-((E)-3-(((5S,8S, 10aR)-8-([1,1′-biphenyl]-4-ylcarbamoyl)-3-acetyl-6-oxodecahydro-pyrrolo[1,2-a][1,5]diazocin-5-yl)amino)-3-oxoprop-1-en-1-yl)phenyl)difluoro-methyl)phosphoryl)bis(oxy))bis (ethane-2,1-diyl)) bis(3-methylbutane-thioate)] here?
**A.** Its IC50 is > 3000 nM.

**Q.** And the IC50 [2]?
**A.** Its IC50 is > 3000 nM.

**Q.** Which results are given for `CC(=O)N1CC[C@H]2CC[C@@H](C(=O)N(C)c3ccccc3)N2C(=O)[C@@H](NC(=O)c2cc3cc(C(F)(F)P(=O)(N[C@H](C)C(=O)OC(C)C)Oc4ccccc4)ccc3s2)C1` (stereo partly drawn) [Compound 326, isopropyl (((2-(((5S,8S, 10aR)-3-acetyl-8-(methyl (phenyl)carbamoyl)-6-oxodecahydro-pyrrolo[1,2-a][1,5]diazocin-5-yl)carbamoyl)benzo[b]thiophen-5-yl)difluoro-methyl) (phenoxy)phosphoryl)-D-alaninate]?
**A.** IC50 [1]: > 3000 nM; IC50 [2]: > 3000 nM
